According to EP0200345A2, “Anti-allergic or anti-inflammatory substituted (hetero)-aralkylamino-ortho-phenols” (BEECHAM GROUP PLC, priority 1985, dated 1986):
Counter-ions that a name gives are not always drawn.

Each compound was assayed against T1, RBL-1 5-lipoxygenase (Rattus norvegicus, UniProt P12527) (assay: RBL-1 5-lipoxygenase screen). Settings: compound concentration 0.05 µM; 10,000g supernatant from RBL-1 cells; formation of 5-HETE and 5,12-diHETE.
T1 construct: 5-Lipoxygenase enzyme was prepared as a 10,000g supernatant from RBL-1 cells; endogenous in cells; host or cells: RBL-1 cells (10,000g supernatant of the homogenate)
T1 sequence (P12527 1-673): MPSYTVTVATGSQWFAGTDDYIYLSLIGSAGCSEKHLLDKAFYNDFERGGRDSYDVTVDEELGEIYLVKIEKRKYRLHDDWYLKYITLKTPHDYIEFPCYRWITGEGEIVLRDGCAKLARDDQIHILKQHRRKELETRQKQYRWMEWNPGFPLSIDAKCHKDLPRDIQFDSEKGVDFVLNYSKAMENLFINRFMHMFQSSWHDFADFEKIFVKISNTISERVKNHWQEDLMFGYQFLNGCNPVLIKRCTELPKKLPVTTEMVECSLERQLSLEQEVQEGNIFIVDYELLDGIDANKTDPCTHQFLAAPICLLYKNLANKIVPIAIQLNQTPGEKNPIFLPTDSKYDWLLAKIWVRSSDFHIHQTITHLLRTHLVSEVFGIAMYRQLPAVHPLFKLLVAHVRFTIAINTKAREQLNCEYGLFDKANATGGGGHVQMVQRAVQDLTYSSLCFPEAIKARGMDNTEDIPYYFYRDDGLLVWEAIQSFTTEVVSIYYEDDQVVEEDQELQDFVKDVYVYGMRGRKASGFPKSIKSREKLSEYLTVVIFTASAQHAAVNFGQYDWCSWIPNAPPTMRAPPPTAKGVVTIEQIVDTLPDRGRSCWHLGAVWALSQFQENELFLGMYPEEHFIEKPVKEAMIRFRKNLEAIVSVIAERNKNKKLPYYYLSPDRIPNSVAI
Format: biochemical
Experimental: 1) RBL-1 5-LIPOXYGENASE SCREEN
5-Lipoxygenase enzyme was prepared as a 10,000g supernatant from RBL-1 cells by the method of Jakschik (Jakschik, B.A., F.F. Sun, L.M. Lee, and M.M. Steinhoff, 1980, Biochem. Biophys. Res. Comm. 95, 103). The 10,000g supernatant was diluted with homogenization buffer to the equivaleni of 1.5 -2.5 x 10^7 cells. ml.-' and made 2mM with respect to CaCl2. Aliquots of 0.5ml were then dispensed into tubes, and incubated at 29°C with 5ul ethanol or compound in ethanol at the desired concentration for 2min. Then [1-"C] arachidonic acid was added in buffer to give a final concentration of 6.3uM and 0.2uCi per incubation, and the reaction continued at 29°C for 2 min. The reaction was terminated by adding 1ml of acetone and cooling on ice, 0.5ml of ice-cold saline and 100ul of 2N formic acid were added, and the mixture was extracted with 2 ^x 2ml of chloroform. The extract was stored under N, at -20°C until analysis by chromatography. Activity was measured as the percentage of total radioactivity found in 5-HETE and 5,12-diHETE, and inhibition calculated as the decrease information of the sum of these two species in compound-treated incubates relative to control incubations.

Compound | inhibition at 0.05 µM
Cc1ccc(O)c(NCc2ccc(F)cc2)c1 [Example 11, 2-[(4-fluorophenyl)methyl]amino-4-methyl phenol] | 93.2%
Cc1ccc(O)c(NCc2cccc(C(F)(F)F)c2)c1 [Example 10, 2-[(3-trifluoromethylphenyl)methyl]amino-4-methylphenol] | 89.5%
Cc1ccc(O)c(NCc2ccc(O)cc2)c1 [Example 27, 2-[(4-hydroxyphenyl)methyl]amino-4-methylphenol] | 12%
Cc1ccc(O)c(NCc2ccc(C#N)cc2)c1 [Example 5, 2-[(4-Cyanophenyl)methyl]amino-4-methylphenol] | 42.8%
Cc1ccc(O)c(NCc2ccc([N+](=O)[O-])cc2)c1 [Example 25] | 80%
Cc1ccc(O)c(NCc2ccc(Br)cc2)c1 [Example 14, 2-[(4-bromophenyl)methyl]amino-4-methyl phenol] | 64.2%
Cc1ccc(O)c(NCc2ccc(Cl)c(Cl)c2)c1 [Example 12, 2-[(3,4 dichlorophenyl)methyl]amino-4-methyl phenol] | 73.7%
COc1ccc(CNc2cc(C)ccc2O)cc1 [Example 7, 2-[(4-methoxyphenyl)methyl]amino-4-methylphenol] | 61.7%
Cc1ccc(O)c(NCc2ccc(Cl)cc2)c1 [Example 8, 2-[(4-chlorophenyl)methyl]amino-4-methylphenol] | 91.4%

Now from value to compound:

inhibition at 0.05 µM | Compound
49.7% | Cc1ccc(O)c(NCc2cccs2)c1 [Example 13, 2-[(thien-2-yl)methyl]amino-4-methyl phenol]
80% | Cc1ccc(O)c(NCc2ccc(C(C)C)cc2)c1 [Example 26]
86% | Cc1ccc(O)c(NCCc2ccccc2)c1 [Example 28, 2-phenylethylamino-4-methylphenol]
34% | Cc1ccc(O)c(NC(C)c2ccccc2)c1 (stereo not drawn) [Example 17, 2 -(α -Methylbenzyl)amino -4 -methylphenol]
31.4% | Cc1ccc(O)c(NCc2ccco2)c1 [Example 9, 2-[(2-furyl)methyl]amino-4-methylphenol]
85% | Cc1ccc(O)c(NCc2cccc(Cl)c2)c1 [Example 15]
81% | Oc1ccc(Cl)cc1NCc1ccccc1 [Example 22, 2-phenylmethylamino-4-chlorophenol]
35% | CC(C)(C)c1ccc(O)c(NCc2ccccc2)c1 [Example 21, 2-phenylmethylamino-4-tert-butylphenol]
76% | Cc1ccc(O)c(NCc2cccc(F)c2)c1 [Example 16, 2-[(3-fluorophenyl)methyl]amino-4-methyl phenol]
93.4% | Cc1ccc(CNc2cc(C)ccc2O)cc1 [Example 6, 2-[(4-Methylphenyl)methyl]amino-4-methylphenol]
20% | CCc1ccc(O)c(NCc2ccccc2)c1 [Example 24, 2-phenylmethylamino-4-ethylphenol]
77% | CC(C)c1ccc(O)c(NCc2ccccc2)c1 [Example 20, 2-phenylmethylamino-4-iso-propylphenol]

Same assay, conditions: compound concentration 1 µM; 10,000g supernatant from RBL-1 cells; formation of 5-HETE and 5,12-diHETE

inhibition at 1 µM | Compound
91% | Cc1ccc(O)c(N(Cc2ccccc2)Cc2ccccc2)c1 [Example 30, 2-Dibenzylamino-4-methylphenol]
94% | O=C(c1ccccc1)c1cc(NCc2ccccc2)c(O)cc1O [Example 29, 4-Benzoyl-6-(Phenylmethylamino)resorcinol hydrochloride]

Same assay, conditions: compound concentration 20 µM; 10,000g supernatant from RBL-1 cells; formation of 5-HETE and 5,12-diHETE

inhibition at 20 µM | Compound
98% | Oc1ccc(Br)cc1NCc1ccccc1 [Example 23, 2-phenylmethylamino-4-bromophenol]
95.4% | Cc1ccc(O)c(NCc2ccccc2)c1 [Example 3, 2-Phenylmethyfamino-4-methylphenol]
